Experimental data published in US20230009608A1, “GRK2 INHIBITORS AND USES THEREOF” (Cygnal Therapeutics, Inc., priority 2020, published 2023).

Tested on: PAXF1657 control empty vector cell line
Assay: 7-day proliferation assay, PAXF1657 control empty vector cell line (Example 9)
Type: cell-based
Settings: 168 h; Cell Line: PAXF1657 empty vector (EV) cell line; 7-day; read-out: C: 7-day proliferation assay: IC50 GeoMean
Protocol: In order to identify compounds specific for GRK2, we generated two isogenic cell line pairs of the pancreatic cancer cell line PAXF1657, a pair of cells stably overexpressing GRK2 cDNA or the control empty vector and a cell line pair of PAXF1657 GRK2 knockout clonal cells versus non-targeting control clonal cells.
Proliferation Assay: Cellular anti-proliferative activity of compounds was assessed by using the pancreatic cancer cell line, PAXF1657, stably overexpressing GRK2 cDNA or the control empty vector, as well as the parental urinary bladder cancer cell line, 5637. In addition, we also took advantage of GRK2 knockout cell lines that were generated via CRISPR. Cell lines were seeded into tissue culture treated, white-walled, 96-well plates at a density of 500 cells/well in RPMI1640 media supplemented with 10% H.I. FBS and penicillin/streptomycin. Plates were incubated overnight at 37° C., 5% CO2 to allow cells to adhere to the wells. GRK2 inhibitors were added to the cells using a 10-point dilution series with a final concentration ranging from 30 μM-0.0002 μM in 0.3% DMSO. At the time of compound addition, a set of plates, that were not treated with compounds, were collected and cell viability was measured using CellTiter-Glo (Promega). CellTiter-Glo reagent was added to the designed plates and luminescence was measuring using a Biotek Synergy plate reader. The compound treated cells were incubated for 3 days at 37° C., 5% CO2. The media was then aspirated from each well and replaced with fresh media containing GRK2 inhibitors. The compound treated cells were then incubated for an additional 4 days at 37° C., 5% CO2. Cell viability was assessed and at end of the 7-day compound treatment by CellTiterGlo.

Structure (SMILES)	IC50 [µM]
Cn1c(CNc2cccc(C(=O)NCc3ccccc3C(F)(F)F)c2)nnc1-c1ccncn1	1.15
Cn1c(CNc2cccc(C(=O)NCc3cccc(CN4CCOCC4)c3)c2)nnc1-c1ccncn1	> 10
Cn1c(CNc2cccc(C(=O)NC3(c4cccnc4)CCC3)c2)nnc1-c1ccncn1	> 10
Cc1nc(CNC(=O)c2cccc(NCc3nnc(-c4ccncn4)n3C)c2)c[nH]1	> 10
Cn1c(CNc2cccc(C(=O)NC3(c4nccs4)CCCC3)c2)nnc1-c1ccncn1	> 10
Cn1c(CNc2cccc(C(=O)NCc3ncoc3C(F)(F)F)c2)nnc1-c1ccncn1	> 10
CCOc1ncccc1CNC(=O)c1cccc(NCc2nnc(-c3ccncn3)n2C)c1	3.61
C[C@H](NC(=O)c1cccc(NCc2nnc(-c3ccncn3)n2C)c1)c1ccccn1	2.58
Cn1c(CNc2cccc(C(=O)NCc3cncs3)c2)nnc1-c1ccncn1	> 10
Cc1cccc(CNC(=O)c2cccc(NCc3nnc(-c4ccncn4)n3C)c2)n1	3.92
Cn1cc(C(C)(C)NC(=O)c2cccc(NCc3nnc(-c4ccncn4)n3C)c2)cn1	> 10
Cc1csc(C(C)(C)NC(=O)c2cccc(NCc3nnc(-c4ccncn4)n3C)c2)n1	> 10
CC[C@H](NC(=O)c1cccc(NCc2nnc(-c3ccncn3)n2C)c1)c1ccccn1	> 10
COCc1cccc(CNC(=O)c2cccc(NCc3nnc(-c4ccncn4)n3C)c2)c1	2.53
Cn1c(CNc2cccc(C(=O)NCc3ccccc3-n3cncn3)c2)nnc1-c1ccncn1	> 10
CCn1nc(C)c(CNC(=O)c2cccc(NCc3nnc(-c4ccncn4)n3C)c2)n1	0.555
Cn1nccc1C(NC(=O)c1cccc(NCc2nnc(-c3ccncn3)n2C)c1)c1ccccc1 (stereo not drawn)	> 10
CC(C)n1ncnc1CNC(=O)c1cccc(NCc2nnc(-c3ccncn3)n2C)c1	> 10
C[C@H](NC(=O)c1cccc(NCc2nnc(-c3ccncn3)n2C)c1)c1ncccc1F	0.738
CC(C)n1nccc1CNC(=O)c1cccc(NCc2nnc(-c3ccncn3)n2C)c1	> 10
COc1ccccc1C1(NC(=O)c2cccc(NCc3nnc(-c4ccncn4)n3C)c2)CC1	> 10
Cn1c(CNc2cccc(C(=O)NCc3nc(C4CC4)cs3)c2)nnc1-c1ccncn1	2.6

Structure (SMILES)	IC50 [µM]
CC(NC(=O)c1cccc(NCc2nnc(-c3ccncn3)n2C)c1)c1ccon1 (stereo not drawn)	> 10
Cn1c(CNc2cccc(C(=O)NCc3cncc(F)c3)c2)nnc1-c1ccncn1	> 10
CCN(CC)Cc1ccccc1CNC(=O)c1cccc(NCc2nnc(-c3ccncn3)n2C)c1	> 10
CC(C)C(NC(=O)c1cccc(NCc2nnc(-c3ccncn3)n2C)c1)c1nncn1C (stereo not drawn)	> 10
CC(C)Oc1ncccc1CNC(=O)c1cccc(NCc2nnc(-c3ccncn3)n2C)c1	2.36
Cn1c(CNc2cccc(C(=O)NCc3ccn(C4CCCC4)n3)c2)nnc1-c1ccncn1	> 10
CC(C)Cn1nccc1CNC(=O)c1cccc(NCc2nnc(-c3ccncn3)n2C)c1	2.01
Cn1c(CNc2cccc(C(=O)NCc3cc(C(C)(C)C)ccn3)c2)nnc1-c1ccncn1	2.67
COc1ccc(CNC(=O)c2cccc(NCc3nnc(-c4ccncn4)n3C)c2)nc1	> 10
CCN(CC)C(=O)C(NC(=O)c1cccc(NCc2nnc(-c3ccncn3)n2C)c1)c1ccccc1 (stereo not drawn)	> 10
Cn1c(CNc2cccc(C(=O)NCc3ccccn3)c2)nnc1-c1ccncn1	> 10
Cc1cc(CNC(=O)c2cccc(NCc3nnc(-c4ccncn4)n3C)c2)ccn1	> 10
Cn1c(CNc2cccc(C(=O)NC3(c4ccccn4)CC3)c2)nnc1-c1ccncn1	2.03
CN1CCN(c2nccc(CNC(=O)c3cccc(NCc4nnc(-c5ccncn5)n4C)c3)n2)CC1	> 10
Cn1c(CNc2cccc(C(=O)NCc3ccc(Cn4cncn4)cc3)c2)nnc1-c1ccncn1	> 10
Cn1c(CNc2cccc(C(=O)NCc3cc4n(n3)CCCC4)c2)nnc1-c1ccncn1	2.21
Cn1cc(C(NC(=O)c2cccc(NCc3nnc(-c4ccncn4)n3C)c2)c2ccc(F)cc2)cn1 (stereo not drawn)	> 10
Cc1ncc(CNC(=O)c2cccc(NCc3nnc(-c4ccncn4)n3C)c2)s1	> 10
CCc1cc(CNC(=O)c2cccc(NCc3nnc(-c4ccncn4)n3C)c2)no1	3.55
Cn1c(CNc2cccc(C(=O)NCc3nc4ccccc4o3)c2)nnc1-c1ccncn1	> 10
C[C@H](NC(=O)c1cccc(NCc2nnc(-c3ccncn3)n2C)c1)c1cnccn1	1.51
Cn1c(CNc2cccc(C(=O)NC(c3ncccn3)C(C)(C)C)c2)nnc1-c1ccncn1 (stereo not drawn)	> 10

Structure (SMILES)	IC50 [µM]
Cc1ccnc(C(C)NC(=O)c2cccc(NCc3nnc(-c4ccncn4)n3C)c2)n1 (stereo not drawn)	> 10
C[C@H](NC(=O)c1cccc(NCc2nnc(-c3ccncn3)n2C)c1)c1ccnn1C	> 10
COCC(C)(NC(=O)c1cccc(NCc2nnc(-c3ccncn3)n2C)c1)c1ccccc1 (stereo not drawn)	0.88
Cn1c(CNc2cccc(C(=O)NC(C)(C)c3ncccn3)c2)nnc1-c1ccncn1	> 10
Cn1c(CNc2cccc(C(=O)NC3(c4ccccn4)CCC3)c2)nnc1-c1ccncn1	> 10
Cn1c(CNc2cccc(C(=O)NC3(c4ccc(F)cn4)CC3)c2)nnc1-c1ccncn1	0.291
Cc1nc(C2(NC(=O)c3cccc(NCc4nnc(-c5ccncn5)n4C)c3)CC2)cs1	4.74
Cn1c(CNc2cccc(C(=O)NCc3nncn3C3CC3)c2)nnc1-c1ccncn1	> 10
Cn1c(CNc2cccc(C(=O)NCc3cccc(C(F)(F)F)n3)c2)nnc1-c1ccncn1	1.86
CCC(NC(=O)c1cccc(NCc2nnc(-c3ccncn3)n2C)c1)c1ncccn1 (stereo not drawn)	5.39
Cc1nc2n(n1)CCCC2NC(=O)c1cccc(NCc2nnc(-c3ccncn3)n2C)c1 (stereo not drawn)	> 10
Cn1c(CNc2cccc(C(=O)N[C@H]3c4ccccc4CC[C@H]3O)c2)nnc1-c1ccncn1	> 10
Cn1c(CNc2cccc(C(=O)NC3CCCc4ncccc43)c2)nnc1-c1ccncn1 (stereo not drawn)	2.5
CC1CC(NC(=O)c2cccc(NCc3nnc(-c4ccncn4)n3C)c2)c2ncnn21 (stereo not drawn)	> 10
Cn1c(CNc2cccc(C(=O)N[C@H]3CCOc4c(F)cc(F)cc43)c2)nnc1-c1ccncn1	> 10
Cn1c(CNc2cccc(C(=O)NC(CO)c3cccc(F)c3)c2)nnc1-c1ccncn1 (stereo not drawn)	2.48
CC(O)C(NC(=O)c1cccc(NCc2nnc(-c3ccncn3)n2C)c1)c1ccccc1 (stereo not drawn)	1.76
Cn1c(CNc2cccc(C(=O)NCc3ccc(-n4cncn4)cc3)c2)nnc1-c1ccncn1	> 10
CC(NC(=O)c1cccc(NCc2nnc(-c3ccncn3)n2C)c1)c1nccn1-c1ccccc1 (stereo not drawn)	> 10
COc1cnccc1CNC(=O)c1cccc(NCc2nnc(-c3ccncn3)n2C)c1	> 10
Cn1c(CNc2cccc(C(=O)NCc3ccncc3)c2)nnc1-c1ccncn1	> 10
CC(NC(=O)c1cccc(NCc2nnc(-c3ccncn3)n2C)c1)c1ccn[nH]1 (stereo not drawn)	> 10

Structure (SMILES)	IC50 [µM]
Cn1c(CNc2cccc(C(=O)NCc3ccc4c(c3)CNC4=O)c2)nnc1-c1ccncn1	> 10
CNc1cc(CNC(=O)c2cccc(NCc3nnc(-c4ccncc4)[nH]3)c2)ccn1	> 10
Cn1c(CNC(=O)c2cccc(NCc3nnc(-c4ccncc4)[nH]3)c2)nnc1C1CC1	> 10
CC(C)n1ncnc1CNC(=O)c1cccc(NCc2nnc(-c3ccncc3)[nH]2)c1	> 10
O=C(NCc1nccn1CC(F)(F)F)c1cccc(NCc2nnc(-c3ccncc3)[nH]2)c1	> 10
O=C(NC1(c2cccnc2)CC1)c1cccc(NCc2nnc(-c3ccncc3)[nH]2)c1	> 10
O=C(NCc1nnc2n1CCCCC2)c1cccc(NCc2nnc(-c3ccncc3)[nH]2)c1	> 10
O=C(NC1(c2ccncc2)CC1)c1cccc(NCc2nnc(-c3ccncc3)[nH]2)c1	> 10
O=C(NCCc1ncccn1)c1cccc(NCc2nnc(-c3ccncc3)[nH]2)c1	> 10
Cn1cc2c(n1)CCCC2NC(=O)c1cccc(NCc2nnc(-c3ccncc3)[nH]2)c1 (stereo not drawn)	> 10
Cc1cc(CNC(=O)c2cccc(NCc3nnc(-c4ccncc4)[nH]3)c2)ccn1	> 10
Cc1nc(C)c(CNC(=O)c2cccc(NCc3nnc(-c4ccncc4)[nH]3)c2)o1	> 10
CCn1nc(C)c(CNC(=O)c2cccc(NCc3nnc(-c4ccncc4)[nH]3)c2)c1C	> 10
O=C(NC[C@H]1COCCO1)c1cccc(NCc2nnc(-c3ccncc3)[nH]2)c1	1.12
O=C(NCc1ccncc1OCC(F)F)c1cccc(NCc2nnc(-c3ccncc3)[nH]2)c1	> 10
O=C(NC1(c2ncccn2)CC1)c1cccc(NCc2nnc(-c3ccncc3)[nH]2)c1	> 10
CCn1nnc(C)c1CNC(=O)c1cccc(NCc2nnc(-c3ccncc3)[nH]2)c1	0.651
COc1ccc2c(c1)OCC[C@@H]2NC(=O)c1cccc(NCc2nnc(-c3ccncn3)n2C)c1	10.1
COc1ccccc1[C@@H](NC(=O)c1cccc(NCc2nnc(-c3ccncn3)n2C)c1)c1nccn1C	78.2
[2H]C([2H])(Nc1cccc(C(=O)N[C@@H]2COCc3ccccc32)c1)c1nnc(-c2ccncn2)n1C	0.116
[2H]C([2H])(Nc1cccc(C(=O)N[C@@H]2CCOc3cccnc32)c1)c1nnc(-c2ccncn2)n1C	0.274
